Measurements published in patent US20220024891A1 (The Board of Regents of the University of Texas System, priority 2018, published 2022).
Read-outs that look alike come from different tables or passages of the source. Each block holds one compound with its values, some of them ahead of it.

What was measured:
DLD-1 cells = test: Sensitivity of DLD-1 versus HCT-116 cells to EBP inhibitors; assay type: cell-based, human; settings: varying doses
[1] = Mouse PK analysis, plasma; assay type: in vivo; settings: for Cmax: female, CD-1, mouse, plasma, dosed intravenously (i.v.)
[2] = Mouse PK analysis, large intestine; assay type: in vivo; settings: for AUC(0-t): female, CD-1, mouse, large intestine, read-out: Large Intestinal pK AUClast (converted)
[3] = test system: colorectal tumors in CPC;Apc mice; test: Anti-tumor effects in CPC;Apc mice; assay type: in vivo, mouse; settings: 90 days' treatment
Procedure: These mice carry a CDX2P-NLS Cre recombinase transgene and a loxP-targeted Apc allele that deletes exon 14, leading to a frame shift at codon 580 and a truncated APC protein. […] Weights were measured every 15 days over the treatment period. These studies were performed according to the guidelines of the UT Southwestern Institutional Animal Care and Use Committee.

DLD1 tumors = test: Xenograft mouse model, DLD1 tumors; assay type: in vivo; settings: nude mice, 40 mg/kg intraperitoneally twice daily for 18 days

SMILES: CC(C(O)c1ccc(O)cc1)N1CCC(Cc2ccccc2)CC1 (stereo not shown) [Ifenprodil, ifenprodil]
selective sensitivity of DLD-1 versus HCT-116 cells (DLD-1 cells): selectively sensitive

Cmax ([1]; iv): 191 to 742 ng/mL | Plasma pK AUClast (ng · min/mL) ([1]; iv, 10 mg/kg): 21,581 ng · min/mL | Plasma pK Cmax (ng/mL) ([1]; iv, 10 mg/kg): 191 ng/mL | Plasma pK Tmax (min) ([1]; iv, 10 mg/kg): 30 min | Plasma pK Vz (mL) ([1]; iv, 10 mg/kg): 1243 mL | melting point: 152 to 155 °C | AUC(0-t) ([2]; iv, 10 mg/kg): 4380 ng·h/mL | Large Intestinal pK Tmax (min) ([2]; iv, 10 mg/kg): 10 min
SMILES: CC1CCN(C2CCN(S(=O)(=O)c3ccc(Cl)cc3)CC2)CC1 [compound 16, 1′-((4-Chlorophenyl)sulfonyl)-4-methyl-1,4′-bipiperidine]

SMILES: COc1ccc(S(=O)(=O)N2CCC(N3CCC(C)CC3)CC2)cc1 [compound 6, 1′-((4-methoxyphenyl)sulfonyl)-4-methyl-1,4′-bipiperidine]
Plasma pK AUClast (ng · min/mL) ([1]; ip, 10 mg/kg): 104,103 ng · min/mL | Plasma pK Cmax (ng/mL) ([1]; ip, 10 mg/kg): 2,390 ng/mL | Plasma pK Tmax (min) ([1]; ip, 10 mg/kg): 10 min | Plasma pK Vz (mL) ([1]; ip, 10 mg/kg): 162 mL | AUC(0-t) ([2]; ip, 10 mg/kg): 12300 ng·h/mL

oral bioavailablity ([1]; 20 mg/kg): 52% | Cmax ([1]; iv): 191 to 742 ng/mL | Plasma pK AUClast (ng · min/mL) ([1]; ip, 10 mg/kg): 205,914 ng · min/mL | Plasma pK Cmax (ng/mL) ([1]; ip, 10 mg/kg): 1,117 ng/mL | Plasma pK Tmax (min) ([1]; ip, 10 mg/kg): 10 min | Plasma pK Vz (mL) ([1]; ip, 10 mg/kg): 156 mL | Plasma pK AUClast (ng · min/mL) ([1]; iv, 5 mg/kg): 197,571 ng · min/mL | Plasma pK Cmax (ng/mL) ([1]; iv, 5 mg/kg): 742 ng/mL | Plasma pK Tmax (min) ([1]; iv, 5 mg/kg): 10 min | Plasma pK Vz (mL) ([1]; iv, 5 mg/kg): 135 mL | Plasma pK AUClast (ng · min/mL) ([1]; po, 20 mg/kg): 328,296 ng · min/mL | Plasma pK Cmax (ng/mL) ([1]; po, 20 mg/kg): 691 ng/mL | Plasma pK Vz (mL) ([1]; po, 20 mg/kg): 153 mL | melting point: 132 to 135 °C | AUC(0-t) ([2]; ip, 10 mg/kg): 13200 ng·h/mL | AUC(0-t) ([2]; iv, 5 mg/kg): 8530 ng·h/mL | AUC(0-t) ([2]; po, 20 mg/kg): 14800 ng·h/mL | Large Intestinal pK Tmax (min) ([2]; po, 20 mg/kg): 10 min
SMILES: CC1CCN(C2CCN(S(=O)(=O)c3ccc(OC(F)F)cc3)CC2)CC1 [compound 22, 1′-((4-(Difluoromethoxy)phenyl)sulfonyl)-4-methyl-1,4′-bipiperidine]

SMILES: COc1ccc2c(c1)CCC(c1ccccc1)=C2c1ccc(OCCN2CCCC2)cc1 [Nafoxidine, nafoxidine]
selective sensitivity of DLD-1 versus HCT-116 cells (DLD-1 cells): selectively sensitive

SMILES: COc1ccc(S(=O)(=O)N2CCC(N3CCC(C)CC3)CC2)cc1 [TASIN-1]
body weight over treatment [3]: gained weight to a level similar to WT mice | toxicity and body weights (DLD1 tumors): no overt toxicity and no statistically significant differences were observed in the body weights

melting point: 184 to 186 °C
SMILES: CC1CCN(C2CCN(S(=O)(=O)c3ccc(C#N)cc3)CC2)CC1 [compound 9, 4-((4-Methyl-[1,4′-bipiperidin]-1′-yl)sulfonyl)benzonitrile]

melting point: 82 to 84 °C
SMILES: CC1CCN(C2CCN(S(=O)(=O)c3ccccc3Br)CC2)CC1 [compound 30, 1′-((2-Bromophenyl)sulfonyl)-4-methyl-1,4′-bipiperidine]
